pEC50: −log10 of the molar value. Structures can show the parent of a compound that is named as a salt.
Molecular target: T1, human β3 adrenergic receptor (Homo sapiens, UniProt P13945)
T1 construct: stably transfected with the cloned β-adrenergic receptor (β1, β2 or β3); expressed in transfected cells; host or cells: Chinese hamster ovary (CHO) cells, stably transfected
Assay: Functional assay: cAMP production (LANCE TR-FRET) in CHO cells stably transfected with cloned β3 adrenergic receptor
Assay type: cell-based
Settings: Table 2; cAMP production, CHO cells expressing human β3 AR; read-out: Human β3 functional

T1 sequence (P13945 whole entry): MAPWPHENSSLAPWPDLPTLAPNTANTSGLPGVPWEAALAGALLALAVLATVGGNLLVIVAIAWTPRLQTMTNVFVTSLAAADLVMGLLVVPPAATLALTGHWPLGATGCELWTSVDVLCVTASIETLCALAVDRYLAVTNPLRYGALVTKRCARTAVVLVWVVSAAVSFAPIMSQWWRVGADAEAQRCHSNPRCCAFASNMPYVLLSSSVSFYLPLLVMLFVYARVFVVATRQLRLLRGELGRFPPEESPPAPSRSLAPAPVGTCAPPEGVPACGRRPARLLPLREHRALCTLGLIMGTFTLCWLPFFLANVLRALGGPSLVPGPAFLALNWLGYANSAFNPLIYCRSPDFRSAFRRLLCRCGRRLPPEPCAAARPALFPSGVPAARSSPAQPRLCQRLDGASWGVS

Structure (SMILES)	pEC50
O=C(Cc1nnn[nH]1)Nc1ccc(CC2CC[C@H]([C@H](O)c3cccnc3)N2)cc1 (some centres unmarked) [Example 55]	7.00 to 7.96
NC(=O)c1nn(CC(=O)Nc2ccc(CC3CC[C@H]([C@H](O)c4cccnc4)N3)cc2)c(=O)c2ccccc12 (some centres unmarked) [Example 56]	8.00 to 9.00
O=C(Cn1c(=O)[nH]c(=O)c2ccccc21)Nc1ccc(CC2CC[C@H]([C@H](O)c3cccnc3)N2)cc1 (some centres unmarked) [Example 57]	8.00 to 9.00
O=C(Cn1c(=O)cnc2ccccc21)Nc1ccc(CC2CC[C@H]([C@H](O)c3cccnc3)N2)cc1 (some centres unmarked) [Example 58]	8.00 to 9.00
Cc1cccc2c(=O)n(CC(=O)Nc3ccc(CC4CC[C@H]([C@H](O)c5cccnc5)N4)cc3)cnc12 (some centres unmarked) [Example 59]	8.00 to 9.00
O=C(Cn1cccnc1=O)Nc1ccc(CC2CC[C@H]([C@H](O)c3cccnc3)N2)cc1 (some centres unmarked) [Example 60]	8.00 to 9.00
O=C(Cn1ccc(=O)[nH]c1=O)Nc1ccc(CC2CC[C@H]([C@H](O)c3cccnc3)N2)cc1 (some centres unmarked) [Example 61]	8.00 to 9.00
Cc1cn(CC(=O)Nc2ccc(CC3CC[C@H]([C@H](O)c4cccnc4)N3)cc2)c(=O)[nH]c1=O (some centres unmarked) [Example 62]	7.00 to 7.96
O=C(Cn1ccncc1=O)Nc1ccc(CC2CC[C@H]([C@H](O)c3cccnc3)N2)cc1 (some centres unmarked) [Example 63]	7.00 to 7.96
O=C(Cn1c(=O)[nH]c2ccccc2c1=O)Nc1ccc(CC2CC[C@H]([C@H](O)c3cccnc3)N2)cc1 (some centres unmarked) [Example 65]	8.00 to 9.00
O=C(Cn1nc(Cl)ccc1=O)Nc1ccc(CC2CC[C@H]([C@H](O)c3cccnc3)N2)cc1 (some centres unmarked) [Example 66]	7.00 to 7.96
O=C(Cn1[nH]c(=O)c2ccccc2c1=O)Nc1ccc(CC2CC[C@H]([C@H](O)c3cccnc3)N2)cc1 (some centres unmarked) [Example 67]	7.00 to 7.96
Cc1nonc1CC(=O)Nc1ccc(CC2CC[C@H]([C@H](O)c3cccnc3)N2)cc1 (some centres unmarked) [Example 68]	7.00 to 7.96
CC1=NN(CC(=O)Nc2ccc(CC3CC[C@H]([C@H](O)c4cccnc4)N3)cc2)C(=O)C1C (some centres unmarked) [Example 69]	7.00 to 7.96
CC1=NN(CC(=O)Nc2ccc(CC3CC[C@H]([C@H](O)c4cccnc4)N3)cc2)C(=O)C1 (some centres unmarked) [Example 70]	7.00 to 7.96
O=C(CC1NC(=O)NC1=O)Nc1ccc(CC2CC[C@H]([C@H](O)c3cccnc3)N2)cc1 (some centres unmarked) [Example 71]	6.00 to 7.00
O=C(CC1NC(=S)N(c2ccccc2)C1=O)Nc1ccc(CC2CC[C@H]([C@H](O)c3cccnc3)N2)cc1 (some centres unmarked) [Example 72]	7.00 to 7.96
O=C(Cc1n[nH]c(=O)[nH]1)Nc1ccc(CC2CC[C@H]([C@H](O)c3cccnc3)N2)cc1 (some centres unmarked) [Example 73]	7.00 to 7.96

Structure (SMILES)	pEC50
O=C(Cc1csc(=S)[nH]1)Nc1ccc(CC2CC[C@H]([C@H](O)c3cccnc3)N2)cc1 (some centres unmarked) [Example 74]	7.00 to 7.96
O=C(Cn1cnc2ccsc2c1=O)Nc1ccc(CC2CC[C@H]([C@H](O)c3cccnc3)N2)cc1 (some centres unmarked) [Example 75]	8.00 to 9.00
Cn1ncc2ncn(CC(=O)Nc3ccc(CC4CC[C@H]([C@H](O)c5cccnc5)N4)cc3)c(=O)c21 (some centres unmarked) [Example 76]	8.00 to 9.00
O=C(Cc1ccccc1F)Nc1ccc(CC2CC[C@H]([C@H](O)c3cccnc3)N2)cc1 (some centres unmarked) [Example 77]	7.00 to 7.96
O=C(Cc1c(F)cccc1F)Nc1ccc(CC2CC[C@H]([C@H](O)c3cccnc3)N2)cc1 (some centres unmarked) [Example 78]	8.00 to 9.00
O=C(Cc1cccc(F)c1F)Nc1ccc(CC2CC[C@H]([C@H](O)c3cccnc3)N2)cc1 (some centres unmarked) [Example 79]	7.00 to 7.96
Cc1nc(CC(=O)Nc2ccc(CC3CC[C@H]([C@H](O)c4cccnc4)N3)cc2)no1 (some centres unmarked) [Example 80]	7.00 to 7.96
O=C(Cc1csc(-c2ccccn2)n1)Nc1ccc(CC2CC[C@H]([C@H](O)c3cccnc3)N2)cc1 (some centres unmarked) [Example 81]	7.00 to 7.96
O=C(Cc1csc(-c2cccnc2)n1)Nc1ccc(CC2CC[C@H]([C@H](O)c3cccnc3)N2)cc1 (some centres unmarked) [Example 82]	8.00 to 9.00
COC(=O)CCC(=O)Nc1ccc(CC2CC[C@H]([C@H](O)c3cccnc3)N2)cc1 (some centres unmarked) [Example 83]	6.00 to 7.00
O=C(O)CCC(=O)Nc1ccc(CC2CC[C@H]([C@H](O)c3cccnc3)N2)cc1 (some centres unmarked) [Example 84]	6.00 to 7.00
O=C(CN1CCCOC1=O)Nc1ccc(CC2CC[C@H]([C@H](O)c3cccnc3)N2)cc1 (some centres unmarked) [Example 85]	7.00 to 7.96
CN1CCN(CC(=O)Nc2ccc(CC3CC[C@H]([C@H](O)c4cccnc4)N3)cc2)C1=O (some centres unmarked) [Example 86]	6.00 to 7.00
CN1CCCN(CC(=O)Nc2ccc(CC3CC[C@H]([C@H](O)c4cccnc4)N3)cc2)C1=O (some centres unmarked) [Example 87]	6.00 to 7.00
Cc1nn(C)c(O)c1CC(=O)Nc1ccc(CC2CC[C@H]([C@H](O)c3cccnc3)N2)cc1 (some centres unmarked) [Example 88]	6.00 to 7.00
NC(=O)c1ccn(CC(=O)Nc2ccc(CC3CC[C@H]([C@H](O)c4cccnc4)N3)cc2)n1 (some centres unmarked) [Example 89]	7.00 to 7.96
NC(=O)c1cnn(CC(=O)Nc2ccc(CC3CC[C@H]([C@H](O)c4cccnc4)N3)cc2)c1 (some centres unmarked) [Example 90]	7.00 to 7.96

Same assay, conditions: Table 3; cAMP production, CHO cells expressing human β3 AR; read-out: Human β3 functional

Structure (SMILES)	pEC50
O=C(Nc1ccc(CC2CC[C@H]([C@H](O)c3cccnc3)N2)cc1)[C@@H]1CCc2nnnn21 (some centres unmarked) [Example 172]	8.00 to 9.00
O=C(Nc1ccc(CC2CC[C@H]([C@H](O)c3cccnc3)N2)cc1)[C@H]1CCc2nnnn21 (some centres unmarked) [Example 173]	8.00 to 9.00

Same assay, conditions: Table 4; cAMP production, CHO cells expressing human β3 AR; read-out: Human β3 functional

Structure (SMILES)	pEC50
O=S(=O)(Nc1ccc(CC2CC[C@H]([C@H](O)c3cccnc3)N2)cc1)c1ccc(-c2nc(-c3ccc(C(F)(F)F)cc3)cs2)cc1 (some centres unmarked) [Example 223]	8.00 to 9.00
O=S(=O)(Nc1ccc(CC2CC[C@H]([C@H](O)c3cccnc3)N2)cc1)c1ccc(I)cc1 (some centres unmarked) [Example 224]	7.00 to 7.96
O=S(=O)(Nc1ccc(CC2CC[C@H]([C@H](O)c3cccnc3)N2)cc1)c1ccc2ccccc2c1 (some centres unmarked) [Example 225]	7.00 to 7.96
O=S(=O)(Cc1ccccn1)Nc1ccc(CC2CC[C@H]([C@H](O)c3cccnc3)N2)cc1 (some centres unmarked) [Example 226]	6.00 to 7.00

Results, then the compound that gave them:

pEC50	Structure (SMILES)
7.00 to 7.96	O=S(=O)(Nc1ccc(CC2CC[C@H]([C@H](O)c3cccnc3)N2)cc1)c1ccc(-n2cccn2)cc1 (some centres unmarked) [Example 227]
6.00 to 7.00	O=S(=O)(Nc1ccc(CC2CC[C@H]([C@H](O)c3cccnc3)N2)cc1)c1ccc2cnccc2c1 (some centres unmarked) [Example 228]
6.00 to 7.00	O=S(=O)(Nc1ccc(CC2CC[C@H]([C@H](O)c3cccnc3)N2)cc1)c1cccc2cccnc12 (some centres unmarked) [Example 229]
6.00 to 7.00	O=S(=O)(Nc1ccc(CC2CC[C@H]([C@H](O)c3cccnc3)N2)cc1)c1cccc2cnccc12 (some centres unmarked) [Example 230]
6.00 to 7.00	O=S(=O)(Nc1ccc(CC2CC[C@H]([C@H](O)c3cccnc3)N2)cc1)c1ccc2ncsc2c1 (some centres unmarked) [Example 231]
7.00 to 7.96	O=S(=O)(Nc1ccc(CC2CC[C@H]([C@H](O)c3cccnc3)N2)cc1)c1ccc(-c2cnco2)cc1 (some centres unmarked) [Example 232]
6.00 to 7.00	O=C(N1CCc2ccc(S(=O)(=O)Nc3ccc(CC4CC[C@H]([C@H](O)c5cccnc5)N4)cc3)cc2C1)C(F)(F)F (some centres unmarked) [Example 233]
6.00 to 7.00	O=c1ccc2cc(S(=O)(=O)Nc3ccc(CC4CC[C@H]([C@H](O)c5cccnc5)N4)cc3)ccc2o1 (some centres unmarked) [Example 234]
6.00 to 7.00	N#Cc1ccccc1S(=O)(=O)Nc1ccc(CC2CC[C@H]([C@H](O)c3cccnc3)N2)cc1 (some centres unmarked) [Example 235]
6.00 to 7.00	N#Cc1cccc(S(=O)(=O)Nc2ccc(CC3CC[C@H]([C@H](O)c4cccnc4)N3)cc2)c1 (some centres unmarked) [Example 236]
6.00 to 7.00	N#Cc1ccc(S(=O)(=O)Nc2ccc(CC3CC[C@H]([C@H](O)c4cccnc4)N3)cc2)cc1 (some centres unmarked) [Example 237]
6.00 to 7.00	O=S(=O)(Nc1ccc(CC2CC[C@H]([C@H](O)c3cccnc3)N2)cc1)c1ccccc1I (some centres unmarked) [Example 238]

Same assay, conditions: Table 5; human β3 functional activity given as ranges; read-out: Human β3 functional

Structure (SMILES)	pEC50
Nc1nc(CC(=O)Nc2ccc(CC3CC[C@H]([C@H](O)c4cccnc4)N3)cc2Br)cs1 (some centres unmarked) [Example 242]	6.00 to 7.00

Same assay, conditions: Table 6; human β3 functional activity given as ranges; read-out: Human β3 functional

Structure (SMILES)	pEC50
CC(C(=O)Nc1ccc(C[C@@H]2CC[C@H]([C@H](O)c3cccnc3)N2)cc1)N(C)C(=O)c1ccccn1 (some centres unmarked) [Example 247]	6.00 to 7.00
CC(C(=O)Nc1ccc(C[C@@H]2CC[C@H]([C@H](O)c3cccnc3)N2)cc1)N(C)C(=O)c1ccccc1F (some centres unmarked) [Example 248]	7.00 to 7.96
CC(=O)NC(C)C(=O)Nc1ccc(C[C@@H]2CC[C@H]([C@H](O)c3cccnc3)N2)cc1 (some centres unmarked) [Example 249]	7.00 to 7.96
CC(NC(=O)c1c(F)cccc1F)C(=O)Nc1ccc(C[C@@H]2CC[C@H]([C@H](O)c3cccnc3)N2)cc1 (some centres unmarked) [Example 250]	> 9.00

Same assay, conditions: cAMP production, CHO cells expressing human β3 AR; read-out: human Beta-3 agonist functional activity

Structure (SMILES)	pEC50
O=S(=O)(Nc1ccc(C[C@@H]2CC[C@H]([C@H](O)c3cccnc3)N2)cc1)c1ccc(-c2nc(-c3ccc(C(F)(F)F)cc3)cs2)cc1 [Example 222, N-[4-({(2S,5R)-5-[(R)-hydroxy(pyridin-3-yl)methyl]pyrrolidin-2-yl}methyl)phenyl]-4-{4-[4-(trifluoromethyl)phenyl]-1,3-thiazol-2-yl}benzenesulfonamide, trifluoroacetic acid salt]	> 8.00
CCCCCCNC(=O)Nc1ccc(S(=O)(=O)Nc2ccc(C[C@@H]3CC[C@H]([C@H](O)c4cccnc4)N3)cc2)cc1 [Example 239, 4-{[(Hexylamino)carbonyl]amino}-N-[4-({(2S,5R)-5-[(R)-hydroxy(pyridin-3-yl)methyl]pyrrolidin-2-yl}methyl)phenyl]benzenesulfonamide, trifluoroacetic acid salt]	> 8.00
C[C@H](NC(=O)c1ccccc1F)C(=O)Nc1ccc(C[C@@H]2CC[C@H]([C@H](O)c3cccnc3)N2)cc1 [Example 245, 2-Fluoro-N-((1S)-2-{[4-({(2S,5R)-5-[(R)-hydroxy(pyridin-3-yl)methyl]pyrrolidin-2-yl}methyl)phenyl]amino}-1-methyl-2-oxoethyl)benzamide, trifluoracetic acid salt]	> 9.00
C[C@H](NS(=O)(=O)c1ccc(F)cc1)C(=O)Nc1ccc(C[C@@H]2CC[C@H]([C@H](O)c3cccnc3)N2)cc1 [Example 246, (2S)-2-{[(4-Fluorophenyl)sulfonyl]amino}-N-[4-({(2S,5R)-5-[(R)-hydroxy(pyridin-3-yl)methyl]pyrrolidin-2-yl}methyl)phenyl]propanamide]	> 7.00

Source: patent US8501786B2, “Hydroxymethyl pyrrolidines as beta 3 adrenergic receptor agonists” (Merck Sharp & Dohme Corp., priority 2009, dated 2013)
